Measured values published in US20100204113A1, “USE OF STRESSCOPIN-RELATED PEPTIDE AS A THERAPEUTIC AGENT” (priority 2007, published 2010).
No end group written: not given here.

What was measured:
[1] = test system: MRC-5 cells; settings: human, 6 days
[2] = test system: HepG2-2.2.15 cells; assay: Cytotoxicity in the HBV assay (dye uptake); assay type: cell-based; settings: peptide 10 micrograms per ml
[3] = test system: Human Peripheral Blood Mononuclear Cells (PBMC); assay: T cell proliferation assay (PHA, 3H-thymidine); settings: peptide 10 micrograms per ml, 3H-thymidine incorporation
[4] = test system: spleen cells; assay: Th1/Th2 cytokine profiling assay (Ovalbumin restimulation, CBA kit); assay type: cell-based, Balb/c mice; settings: peptide 10 micrograms per ml, 72 hours
[5] = test system: HCMV strain AD169; assay: HCMV plaque reduction assay; settings: MRC-5 cells; peptide 10 micrograms per ml; 7-10 days
[6] = test system: RAW 264.7 cells; assay: Phagocytosis assay (Fluorescein-labeled Escherichia coli, flow cytometry); assay type: cell-based, mouse; settings: peptide 10 micrograms per ml, 30 min preincubation, 60 min ingestion
[7] = Cytotoxicity in the HBV assay (dye uptake); assay type: cell-based; settings: human, HepG2-2.2.15 cells, peptide 10 micrograms per ml, read-out: % Cell Viability
[8] = test system: hepatitis B virus (HBV) ayw strain; assay: HBV assay (secreted HBV DNA, TaqMan PCR); assay type: cell-based; settings: HepG2-2.2.15; peptide 10 micrograms per ml; six days; HBV DNA in supernatant
[9] = test system: Human Peripheral Blood Mononuclear Cells (PBMC); assay: B cell proliferation assay (SAC plus Interleukin-2, 3H-thymidine); assay type: cell-based; settings: peptide 10 micrograms per ml, 3H-thymidine incorporation
[10] = in vitro; settings: human, MRC-5 cells
[11] = test system: Pseudomonas aeruginosa; assay type: cell-based; settings: 5 micrograms per ml
[12] = test system: HUVEC; assay: Endothelial tube formation assay; assay type: cell-based, human; settings: peptide 10 micrograms per ml, 20 hours
Description: Positive control was vehicle only.

[13] = test system: A549 cells; assay: Cell cycle assay (propidium iodide, FACS); assay type: cell-based, human; settings: peptide 10 micrograms per ml, 24 hours
Description: The cell cycle consists of four distinct phases: […]

[14] = test system: A549 cells; assay: Apoptosis induction assay (Annexin-5); assay type: cell-based, human; settings: peptide 10 micrograms per ml, 24 hours
Description: Human A549 cells (carcinomic human alveolar basal epithelial cells) were utilized in the experiments employing the Annexin-5 apoptosis assay.

[15] = test system: Primary Human endothelial cells (HUVEC); assay: Endothelial cell migration assay; assay type: cell-based; settings: peptide 10 micrograms per ml, 22 hours
[16] = test system: A549 cells; assay: Apoptosis prevention assay (C2 ceramide, Annexin-5); assay type: cell-based, human; settings: 30 min pretreatment with peptide 10 micrograms per ml, then C2 ceramide
[17] = test system: macrophages prepared from human PBMC; assay: TNF alpha production assay (LPS-stimulated macrophages, ELISA); assay type: cell-based; settings: peptide 10 micrograms per ml, 30 min preincubation, lipopolysaccharide 200 ng/ml overnight
Description: Not stimulated macrophages served as negative background control.

[18] = in vitro; settings: human, CEM-SS cells
[19] = test system: Streptococcus pneumoniae; assay type: cell-based; settings: 5 micrograms per ml
[20] = test system: MRSA; settings: 5 micrograms per ml
[21] = test system: HIV-1IIIB; assay: HIV-1 antiviral assay (CPE reduction, MTS); assay type: cell-based; settings: peptide 10 micrograms per ml, 6 days post-infection
[22] = test system: CEM-SS cells; assay: Cytotoxicity in the HIV-1 assay (cell viability, MTS); settings: peptide 10 micrograms per ml

In the case of `Nc1nc(O)c2ncn(COC(CO)CO)c2n1` [Ganciclovir], the “% Cell viability” value [1] is reported as 100%.

With `Nc1ccn([C@@H]2CS[C@H](CO)O2)c(=O)n1` [3TC, Lamivudine, reference compound] the “% Cell viability” value [2] was 95.8%.

For “HPGSRIVLSLDVPIGLLQILLEQARARAAREQATTNARILARV-NH2 [Stresscopin-related peptide]”, the “% of PHA induced control” value [3] was 92.6%, the “IFNγ spleen cells; TH1 response (% of control)” value [4] was 105.6 % of control and the “IL-2 spleen cells (% of control)” value [4] was 66.8 % of control. For the same compound, the “IL-4 spleen cells; TH2 response (% of control)” value [4] was 68.9 % of control, the “IL-5 spleen cells; TH2 response (% of control)” value [4] was 67.0 % of control and the “TNF-a spleen cells; TH1 response (% of control)” value [4] was 125.6 % of control. The “% plaque reduction” value [5] was 0.0%, the “% of control phagocytosis” value [6] was 131.4% and the viability at 144 h, 10 micrograms per ml [7] was 100%. For the same compound, the “% inhibition of HBV replication in HEP G2 cells” value [8] was 0.0%, the “% of SAC/IL2 induced control” value [9] was 91.4% and the viability at 144 h, 10 micrograms per ml [10] was 100%. The “% inhibition” value [11] was 0.0%, the “% inhibition of tube formation” value [12] was 35% and the “Cell cycle analysis G0/G1” value [13] was 56.9. The “Cell cycle analysis G2/M” value [13] was 9.7, the “Cell cycle analysis S” value [13] was 33.4 and the “% of induction” value [14] was 1.2%. For the same compound, the “% inhibition of migration” value [15] was 15%, the “% prevention of ceramide induced apoptosis” value [16] was 0.0% and the “% of LPS induction” value [17] was 117.0%. For the same compound, the viability at 10 micrograms per ml [18] was 100%, the “% inhibition” value [19] was 0.0% and the “% inhibition” value [20] was 0.0%. For the same compound, the “% CPE reduction in HIV-1 infected CEM-SS cells” value [21] was 0.0%.

For `Cc1cn([C@H]2C[C@H](N=[N+]=[N-])[C@@H](CO)O2)c(=O)[nH]c1=O` [AZT, reference compound], the “% Cell viability” value [22] was 97% and the “% CPE reduction in HIV-1 infected CEM-SS cells” value [21] was 99%.
